The target of the first test is T1, PD-1/PD-L1 interaction (PD-1-Ig / PD-L1-His) (Homo sapiens, UniProt Q9NZQ7).
T1 construct: hPDL1(18-239)-TVMV-His; TVMV protease site linker (C); made in house; host or cells: HEK293T
T1 sequence (Q9NZQ7 with tags, fused parts or gaps): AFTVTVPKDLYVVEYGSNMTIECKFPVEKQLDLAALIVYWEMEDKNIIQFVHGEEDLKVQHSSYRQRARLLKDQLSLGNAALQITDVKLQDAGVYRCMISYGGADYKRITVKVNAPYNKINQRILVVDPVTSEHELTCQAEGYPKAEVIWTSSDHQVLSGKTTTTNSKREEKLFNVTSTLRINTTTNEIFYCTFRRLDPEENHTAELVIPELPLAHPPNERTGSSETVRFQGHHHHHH
The test is described as follows: PD-1/PD-L1 Homogenous Time-Resolved Fluorescence (HTRF) binding assay. The conditions noted are these: IC50 range class; PD-L1-His 10 nM, PD-1-Ig 20 nM; read-out: Range or IC50. In short, it runs like this: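 Human PD-L1-His (10 nM final) was pre-incubated with inhibitor for 15 min, then PD-1-Ig (20 nM final) was added for a further 15 min in dPBS with 0.1% BSA and 0.05% Tween-20. Binding was detected by HTRF using Eu-cryptate anti-Ig (1 nM) and APC anti-His (20 nM).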
(TR-FRET usually uses a lanthanide donor and a delayed reading to cut background.)
Consider `COc1cc(OCc2cccc(-c3cccc(COc4cc(OC)c(CN(C)Cc5cncnc5)cc4Cl)c3C)c2C)c(Cl)cc1CN(C)Cc1cncnc1` [Example 5038, 1,1′-((((2,2′-dimethyl-[1,1′-biphenyl]-3,3′-diyl)bis(methylene))bis(oxy))bis(5-chloro-2-methoxy-4,1-phenylene))bis(N-methyl-N-(pyrimidin-5-ylmethyl)methanamine)], for which the IC50 (usually the concentration that inhibits the measured activity by half) lay within 90.1 to 1000 nM.
Regarding `COc1cc(OCc2cccc(-c3cccc(COc4cc(OC)c(CN(C)Cc5cncs5)cc4Cl)c3C)c2C)c(Cl)cc1CN(C)Cc1cncs1` [Example 5039, 1,1′-((((2,2′-dimethyl-[1,1′-biphenyl]-3,3′-diyl)bis(methylene))bis(oxy))bis(5-chloro-2-methoxy-4,1-phenylene))bis(N-methyl-N-(thiazol-5-ylmethyl)methanamine)], the concentration for half-maximal inhibition (IC50) is 90.1 to 1000 nM.
With `Cc1cc(CN2CCCC[C@H]2C(=O)O)ccc1OCc1cccc(-c2cccc(COc3ccc(CN4CCCC[C@H]4C(=O)O)cc3C)c2C)c1C` [Example 5500, (2S,2′S)-1,1′-(((((2,2′-dimethyl-[1,1′-biphenyl]-3,3′-diyl)bis(methylene))bis(oxy))bis(3-methyl-4,1-phenylene))bis(methylene))bis(piperidine-2-carboxylic acid)], the IC50 lay within 90.1 to 1000 nM.
On to `Cc1cc(OCc2cccc(-c3cccc(COc4cc(C)c(CN5CCCC[C@H]5C(=O)O)cc4Cl)c3C)c2C)c(Cl)cc1CN1CCCC[C@H]1C(=O)O` [Example 5501, (2S,2′S)-1,1′-(((((2,2′-dimethyl-[1,1′-biphenyl]-3,3′-diyl)bis(methylene))bis(oxy))bis(5-chloro-2-methyl-4,1-phenylene))bis(methylene))bis(piperidine-2-carboxylic acid)], for which the IC50 fell in the range of 0.04 to 20 nM.
Regarding `Cc1cc(OCc2cccc(-c3cccc(COc4cc(C)c(CNCCC(=O)O)cc4Cl)c3C)c2C)c(Cl)cc1CNCCC(=O)O` [Example 5502, 3,3′-((((((2,2′-dimethyl-[1,1′-biphenyl]-3,3′-diyl)bis(methylene))bis(oxy))bis(5-chloro-2-methyl-4,1-phenylene))bis(methylene))bis(azanediyl))dipropionic acid], the 50% inhibitory concentration (IC50) was in the range of 0.04 to 20 nM.
Same read-out and setting: in the case of `Cc1cc(OCc2cccc(-c3cccc(COc4cc(OCc5cncc(C#N)c5)c(CN5CCCC[C@H]5C(=O)O)cc4Cl)c3C)c2C)c(Cl)cc1CN1CCCC[C@H]1C(=O)O` [Example 5503, (S)-1-(4-((3′-((4-(((S)-2-carboxypiperidin-1-yl)methyl)-2-chloro-5-((5-cyanopyridin-3-yl)methoxy)phenoxy)methyl)-2,2′-dimethyl-[1,1′-biphenyl]-3-yl)methoxy)-5-chloro-2-methylbenzyl)piperidine-2-carboxylic acid] it was 0.04 to 20 nM.
Take `Cc1cc(OCc2cccc(-c3cccc(COc4cc(OCc5cncc(C#N)c5)c(CNCCC(=O)O)cc4Cl)c3C)c2C)c(Cl)cc1CNCCC(=O)O` [Example 5504, 3-((4-((3′-((4-(((2-carboxyethyl)amino)methyl)-2-chloro-5-((5-cyanopyridin-3-yl)methoxy)phenoxy)methyl)-2,2′-dimethyl-[1,1′-biphenyl]-3-yl)methoxy)-5-chloro-2-methylbenzyl)amino)propanoic acid]: the IC50 lay within 0.04 to 20 nM.
In the case of `Cc1cc(OCc2cccc(-c3cccc(COc4cc(OCc5cncc(C#N)c5)c(CN(C)[C@@H](CCO)C(=O)O)cc4Cl)c3C)c2C)c(Cl)cc1CN(C)[C@@H](CCO)C(=O)O` [Example 5505, N-(4-((3′-((4-((((S)-1-carboxy-3-hydroxypropyl)(methyl)amino)methyl)-2-chloro-5-((5-cyanopyridin-3-yl)methoxy)phenoxy)methyl)-2,2′-dimethyl-[1,1′-biphenyl]-3-yl)methoxy)-5-chloro-2-methylbenzyl)-N-methyl-L-homoserine], the IC50 lay in the range of 0.04 to 20 nM.
Take `Cc1cc(OCc2cccc(-c3cccc(COc4cc(OCc5cncc(C#N)c5)c(CN[C@@](C)(CO)C(=O)O)cc4Cl)c3C)c2C)c(Cl)cc1CN[C@@](C)(CO)C(=O)O` [Example 5507, (S)-2-((4-((3′-((4-((((S)-2-carboxy-1-hydroxypropan-2-yl)amino)methyl)-2-chloro-5-((5-cyanopyridin-3-yl)methoxy)phenoxy)methyl)-2,2′-dimethyl-[1,1′-biphenyl]-3-yl)methoxy)-5-chloro-2-methylbenzyl)amino)-3-hydroxy-2-methylpropanoic acid]: the 50% inhibitory concentration (IC50) was 0.04 to 20 nM.
With `CC(CO)(CO)NCc1cc(Cl)c(OCc2cccc(-c3cccc(COc4cc(OCc5cncc(C#N)c5)c(CNC(C)(CO)CO)cc4Cl)c3)c2)cc1OCc1cncc(C#N)c1` [Example 40010], the 50% inhibitory concentration (IC50) is 0.04 to 20 nM.
As to `C[C@](CO)(NCc1cc(Cl)c(OCc2cccc(-c3cccc(COc4cc(OCc5cncc(C#N)c5)c(CN[C@@](C)(CO)C(=O)O)cc4Cl)c3)c2)cc1OCc1cncc(C#N)c1)C(=O)O` [Example 40040], the IC50 is 0.04 to 20 nM.
Take `N#Cc1cncc(COc2cc(OCc3cccc(-c4cccc(COc5cc(OCc6cncc(C#N)c6)c(CN6CCCC[C@H]6C(=O)O)cc5Cl)c4)c3)c(Cl)cc2CN2CCCC[C@H]2C(=O)O)c1` [Example 40050]: the IC50 lay within 0.04 to 20 nM.
On the same count and under the same terms, under `N#Cc1cncc(COc2cc(OCc3cccc(-c4cccc(COc5cc(OCc6cncc(C#N)c6)c(CN6CCCCC6)cc5Cl)c4)c3)c(Cl)cc2CN2CCCCC2)c1` [Example 40060] stands 20.1 to 90 nM.
On to `CCN(CC)CCCNCc1cc(Cl)c(OCc2cccc(-c3cccc(COc4cc(OCc5cncc(C#N)c5)c(CNCCCN(CC)CC)cc4Cl)c3)c2)cc1OCc1cncc(C#N)c1` [Example 40070], for which the half-inhibitory concentration (IC50) fell in the range of 0.04 to 20 nM.
For the compound `Cc1c(COc2cc(OCc3cncc(C#N)c3)c(CN[C@H](C(=O)O)C(C)(C)O)cc2Cl)cccc1-c1cccc(COc2cc(OCc3cncc(C#N)c3)c(CN[C@H](C(=O)O)C(C)(C)O)cc2Cl)c1C` [Example 40090], the IC50 was in the range of 0.04 to 20 nM.
Take `Cc1c(COc2cc(OCc3cncc(C#N)c3)c(CNC(C(=O)O)C(C)O)cc2Cl)cccc1-c1cccc(COc2cc(OCc3cncc(C#N)c3)c(CNC(C(=O)O)C(C)O)cc2Cl)c1C` (centres unmarked) [Example 40100]: the 50% inhibitory concentration (IC50) lay within 0.04 to 20 nM.
On the same count and under the same terms, under `Cc1c(COc2cc(OCc3cncc(C#N)c3)c(CNC[C@H](O)CC(=O)O)cc2Cl)cccc1-c1cccc(COc2cc(OCc3cncc(C#N)c3)c(CNC[C@H](O)CC(=O)O)cc2Cl)c1C` [Example 40110] stands 0.04 to 20 nM; under `Cc1c(COc2cc(O)c(CN[C@@](C)(CO)C(=O)O)cc2Cl)cccc1-c1cccc(COc2cc(OCc3cncc(C#N)c3)c(CN[C@@](C)(CO)C(=O)O)cc2Cl)c1C` [Example 40130], 0.04 to 20 nM.
As to `C[C@@](CO)(NCc1cc(Cl)c(OCc2cccc(-c3cccc(COc4cc(OCc5cncc(C#N)c5)c(CN[C@@](C)(CO)C(=O)O)cc4Cl)c3Cl)c2Cl)cc1OCc1cncc(C#N)c1)C(=O)O` [Example 40140], the IC50 lay in the range of 0.04 to 20 nM.
`COC(=O)[C@](C)(CO)NCc1cc(Cl)c(OCc2cccc(-c3cccc(COc4cc(OCc5cncc(C#N)c5)c(CN[C@@](C)(CO)C(=O)OC)cc4Cl)c3C)c2C)cc1OCc1cncc(C#N)c1` [Example 40150]: the concentration for half-maximal inhibition (IC50) was 20.1 to 90 nM.
With `Cc1c(COc2cc(O)c(CN[C@@](C)(CO)C(=O)O)cc2Cl)cccc1-c1cccc(COc2cc(O)c(CN[C@@](C)(CO)C(=O)O)cc2Cl)c1C` [Example 40160], the half-maximal inhibitory concentration (IC50) lay in the range of 0.04 to 20 nM.
Still for that read-out and setting: under `N#Cc1cncc(COc2cc(OCc3cccc(-c4cccc(COc5cc(OCc6cncc(C#N)c6)c(CNC(CCO)C(=O)O)cc5Cl)c4Cl)c3Cl)c(Cl)cc2CNC(CCO)C(=O)O)c1` (centres unmarked) [Example 40170] stands 0.04 to 20 nM; under `Cc1c(COc2cc(OCC3CC3)c(CNC(CCO)C(=O)O)cc2Cl)cccc1-c1cccc(COc2cc(OCC3CC3)c(CNC(CCO)C(=O)O)cc2Cl)c1C` (centres unmarked) [Example 40180], 0.04 to 20 nM.
On the same count and under the same terms, in the case of `N#Cc1cncc(COc2cc(OCc3cccc(-c4cccc(COc5cc(OCc6cncc(C#N)c6)c(CN[C@@H](CCO)C(=O)O)cc5Cl)c4Cl)c3Cl)c(Cl)cc2CN[C@@H](CCO)C(=O)O)c1` [Example 40190] it was 0.04 to 20 nM.
Take `Cc1c(COc2cc(OCc3cncc(C#N)c3)c(CNC(CO)(Cc3ccccc3)C(=O)O)cc2Cl)cccc1-c1cccc(COc2cc(OCc3cncc(C#N)c3)c(CNC(CO)(Cc3ccccc3)C(=O)O)cc2Cl)c1C` (centres unmarked) [Example 40200]: the half-inhibitory concentration (IC50) lay in the range of 0.04 to 20 nM.
As for `Cc1c(COc2cc(OCc3cncc(C#N)c3)c(CNC[C@H](O)C(=O)O)cc2Cl)cccc1-c1cccc(COc2cc(OCc3cncc(C#N)c3)c(CNC[C@H](O)C(=O)O)cc2Cl)c1C` [Example 40220], the concentration for half-maximal inhibition (IC50) lay in the range of 0.04 to 20 nM.
As for `Cc1c(COc2cc(OCc3cncc(C#N)c3)c(CNCC(O)CC(=O)O)cc2Cl)cccc1-c1cccc(COc2cc(OCc3cncc(C#N)c3)c(CNCC(O)CC(=O)O)cc2Cl)c1C` (centres unmarked) [Example 40230], the IC50 was in the range of 0.04 to 20 nM.
Consider `Cc1c(COc2cc(OCc3cncc(C#N)c3)c(CNC(C)(CO)CO)cc2Cl)cccc1-c1cccc(COc2cc(OCc3cncc(C#N)c3)c(CNC(C)(CO)CO)cc2Cl)c1C` [Example 40250], for which the IC50 fell in the range of 0.04 to 20 nM.
In the case of `Cc1c(COc2cc(OCc3cncc(C#N)c3)c(CN[C@@H](CO)C(=O)O)cc2Cl)cccc1-c1cccc(COc2cc(OCc3cncc(C#N)c3)c(CN[C@H](CO)C(=O)O)cc2Cl)c1C` [Example 40260], the concentration for half-maximal inhibition (IC50) was 0.04 to 20 nM.
As for `Cc1c(COc2cc(OCc3cncc(C#N)c3)c(CNC(CCO)C(=O)O)cc2Cl)cccc1-c1cccc(COc2cc(OCc3cncc(C#N)c3)c(CNC(CCO)C(=O)O)cc2Cl)c1C` (centres unmarked) [Example 40270], the concentration for half-maximal inhibition (IC50) was in the range of 0.04 to 20 nM.
As for `Cc1c(COc2cc(OCc3cncc(C#N)c3)c(CNC/C=C/C(=O)O)cc2Cl)cccc1-c1cccc(COc2cc(OCc3cncc(C#N)c3)c(CNC/C=C/C(=O)O)cc2Cl)c1C` [Example 40280], the half-maximal inhibitory concentration (IC50) was 0.04 to 20 nM.

The test is the same for the next values; noted with them: numeric IC50; PD-L1-His 10 nM, PD-1-Ig 20 nM; read-out: Range or IC50.
For the compound `Cc1c(COc2cc(OCc3cncc(C#N)c3)c(CNC(C)(CO)C(=O)O)cc2Cl)cccc1-c1cccc(COc2cc(OCc3cncc(C#N)c3)c(CNC(C)(CO)C(=O)O)cc2Cl)c1C` (centres unmarked) [Example 40210], the IC50 was 1.1 nM.

(Values after patent publication US10144706B2 (BRISTOL-MYERS SQUIBB COMPANY, priority 2016, dated 2018).)
